The test system of series [1] is Ciprofloxacin-Resistant P. aeruginosa. Nature of the series: In vitro antimicrobial susceptibility (MIC), Ciprofloxacin-Resistant P. aeruginosa. The following applies: 11 isolates; for MIC Range: in µg/mL (unit assumed). It is filed as cell-based. The protocol: (§1) A finafloxacin solution composition at pH 5.8 and 7.3 was compared to ciprofloxacin and ofloxacin compositions using standard in vitro antimicrobial susceptibility tests (M07-08 Methods for Dilution Antimicrobial Susceptibility Tests for Bacteria that Grow Aerobically; Approved Standard-Eighth Edition (January 2009, Clinical and Laboratory Standards Institute), herein incorporated by reference). Minimum inhibitory concentrations (MIC50) were determined using organisms commonly found in otic and ophthalmic infections. The MIC50 was the lowest concentration of antibiotic that prevented growth of the test organism, as determined visually by a lack of turbidity.
(§2) The results of the experiment are presented below in TABLES 1-5. At acidic pH, finafloxacin generally had greater activity against both Gram-positive and Gram-negative organisms than the fluoroquinolones ciprofloxacin and ofloxacin, both of which are used for the treatment of otic infections. Higher activity under acidic conditions is important for an otic formulation since a low pH formulation is preferred to slow bacterial and fungal growth, as well as the fact the pH environment of the external ear canal is ˜pH 6.

Series [2] relates to Ciprofloxacin-Susceptible P. aeruginosa. Briefly: In vitro antimicrobial susceptibility (MIC), Ciprofloxacin-Susceptible P. aeruginosa. It counts as cell-based. The following applies: 14 isolates; for MIC Range: in µg/mL (unit assumed). The protocol: as §1, §2
Series [3] concerns Ciprofloxacin-Resistant S. aureus. Nature of the series: In vitro antimicrobial susceptibility (MIC), Ciprofloxacin-Resistant S. aureus. The following applies: 12 isolates; for MIC50 / MIC90: unit assumed; for MIC Range: in µg/mL (unit assumed). It counts as cell-based. The protocol: as §1, §2
The next series relates to E. coli. Nature of the series: In vitro antimicrobial susceptibility (MIC), E. coli. The following applies: 10 isolates. It counts as cell-based. The protocol:
as §1, §2

Series [4] has as its system Ciprofloxacin-Susceptible S. aureus. Nature of the series: In vitro antimicrobial susceptibility (MIC), Ciprofloxacin-Susceptible S. aureus. It is filed as cell-based. Particulars: 8 isolates; for MIC Range: in µg/mL (unit assumed). The protocol:
as §1, §2

The nature of series [5]: Stability studies of finafloxacin formulations. It counts as physicochemical. Particulars: aqueous solutions at pH between 5 and 6. The protocol: Exploratory stability studies were conducted to physical and chemical stability characteristics of formulations of the present invention.
Series [6] is described as follows: Stability of finafloxacin free base polymorphs at high temperatures. It counts as physicochemical. Particulars: temperatures such as those encountered during heat sterilization; compared with forms B and C. From the text: A preferred form of finafloxacin for use in embodiments of the present invention is finafloxacin free base. At least three polymorphs of the finafloxacin free base have been identified (forms A, B, and C). […] The crystalline form of finafloxacin free base form A has an X-ray diffraction spectrum substantially the same as the X-ray powder diffraction spectrum shown in FIG. 1.

The mark [7] stands for this setting: pH 5.8, in µg/mL (unit assumed).
The mark [8] stands for this setting: pH 7.3, in µg/mL (unit assumed).

Converted amounts (≈) assume the structure as drawn. Bounds are passed on as bounds.

In the case of `CC1COc2c(N3CCN(C)CC3)c(F)cc3c(=O)c(C(=O)O)cn1c23` (stereo not drawn) [Ofloxacin, ofloxacin], the MIC50 in series [1] (pH 5.8) was 256 µg/mL (≈ 708 µM); in series [1] (pH 7.3) it was 64 µg/mL (≈ 177 µM); in series [2] (pH 5.8) it was 4 µg/mL (≈ 11.1 µM); in series [2] (pH 7.3), 2 µg/mL (≈ 5.53 µM); in series [3] (pH 5.8), 64 µg/mL (≈ 177 µM); in series [3] (pH 7.3), 32 µg/mL (≈ 88.6 µM). Also, the MIC50 worked out at 512 µg/mL (≈ 1420 µM) in the series on E. coli (pH 5.8), 16 µg/mL (≈ 44.3 µM) with E. coli (pH 7.3), 1 µg/mL (≈ 2.77 µM) in series [4] (pH 5.8) and 0.25 µg/mL (≈ 0.692 µM) in series [4] (pH 7.3). Besides, the MIC90 in series [1] (pH 5.8) was > 512 µg/mL; in series [1] (pH 7.3), > 512 µg/mL; in series [2] (pH 5.8), 32 µg/mL (≈ 88.6 µM); in series [2] (pH 7.3) it was 4 µg/mL (≈ 11.1 µM); in series [3] (pH 5.8), > 512 µg/mL; in series [3] (pH 7.3) it was 256 µg/mL (≈ 708 µM). Moreover, the MIC90 in the series with E. coli (setting [7]) came to 512; against E. coli (setting [8]), 16. Also, the “MIC Range” value in series [2] (pH 5.8) is 1-32; in series [2] (pH 7.3) it was 1-4; in series [3] (pH 7.3), 2-256; against E. coli (setting [7]) it was 0.25-512; in the series with E. coli (setting [8]), 0.016-16; in series [4] (pH 5.8) it was 0.5-64. The “MIC Range” value in series [4] (pH 7.3) is on record as 0.125-0.5.
Turning to `N#Cc1c(N2C[C@@H]3NCCO[C@H]3C2)c(F)cc2c(=O)c(C(=O)O)cn(C3CC3)c12` [Fina., 8-cyano-1-cyclopropyl-6-fluoro-7-[(4aS,7aS)-hexahydropyrrolo[3,4-b]-1,4-oxazin-6(2H)-yl]-1,4-dihydro-4-oxo-3-quinolinecarboxylic acid], the MIC50 in series [1] (pH 5.8) was determined as 16 µg/mL (≈ 40.2 µM); in series [1] (pH 7.3), 512 µg/mL (≈ 1290 µM); in series [2] (pH 5.8) it was 1 µg/mL (≈ 2.51 µM); in series [2] (pH 7.3), 4 µg/mL (≈ 10 µM); in series [3] (pH 5.8), 4 µg/mL (≈ 10 µM); in series [3] (pH 7.3), 16 µg/mL (≈ 40.2 µM). For the same compound, the MIC50 in the series on E. coli (pH 5.8) was 4 µg/mL (≈ 10 µM); with E. coli (pH 7.3), 32 µg/mL (≈ 80.3 µM); in series [4] (pH 5.8), 0.016 µg/mL (≈ 0.0402 µM); in series [4] (pH 7.3) it was 0.125 µg/mL (≈ 0.314 µM). In addition, the MIC90 was 512 µg/mL (≈ 1290 µM) in series [1] (pH 5.8); > 512 µg/mL in series [1] (pH 7.3); 4 µg/mL (≈ 10 µM) in series [2] (pH 5.8); 16 µg/mL (≈ 40.2 µM) in series [2] (pH 7.3); 8 µg/mL (≈ 20.1 µM) in series [3] (pH 5.8); 16 µg/mL (≈ 40.2 µM) in series [3] (pH 7.3). Further, the values for the MIC90 against E. coli (setting [7]) and against E. coli (setting [8]) were 8 and 64, respectively. Besides, the “MIC Range” value was 2-512 in series [1] (pH 5.8); 0.25-4 in series [2] (pH 5.8); 2-16 in series [2] (pH 7.3); 0.5-8 in series [3] (pH 5.8); 2-16 in series [3] (pH 7.3); 0.0078-8 in the series with E. coli (setting [7]). Further, the “MIC Range” value with E. coli (setting [8]) is 0.008-64; in series [4] (pH 5.8) it was 0.008-0.125; in series [4] (pH 7.3) it was 0.016-0.25. Also, the “precipitate formation in stability studies” value in series [5] was “precipitates form”.
As to `O=C(O)c1cn(C2CC2)c2cc(N3CCNCC3)c(F)cc2c1=O` [Ciprofloxacin, ciprofloxacin], the MIC50 in series [1] (pH 5.8) is 64 µg/mL (≈ 193 µM); in series [1] (pH 7.3) it was 16 µg/mL (≈ 48.3 µM); in series [2] (pH 5.8), 1 µg/mL (≈ 3.02 µM); in series [2] (pH 7.3), 0.5 µg/mL (≈ 1.51 µM); in series [3] (pH 5.8) it was 128 µg/mL (≈ 386 µM); in series [3] (pH 7.3), 128 µg/mL (≈ 386 µM). Besides, the MIC50 in the series with E. coli (pH 5.8) was determined as 256 µg/mL (≈ 773 µM); against E. coli (pH 7.3), 16 µg/mL (≈ 48.3 µM); in series [4] (pH 5.8), 1 µg/mL (≈ 3.02 µM); in series [4] (pH 7.3), 0.25 µg/mL (≈ 0.754 µM). Moreover, the MIC90 in series [1] (pH 5.8) was > 512 µg/mL; in series [1] (pH 7.3), 512 µg/mL (≈ 1550 µM); in series [2] (pH 5.8), 8 µg/mL (≈ 24.1 µM); in series [2] (pH 7.3), 2 µg/mL (≈ 6.04 µM); in series [3] (pH 5.8), > 256 µg/mL; in series [3] (pH 7.3), 128 µg/mL (≈ 386 µM). Further, the MIC90 is reported as >1024 against E. coli (setting [7]) and 128 with E. coli (setting [8]). Moreover, the “MIC Range” value in series [1] (pH 7.3) is reported as 4-512; in series [2] (pH 5.8), 0.125-8; in series [2] (pH 7.3) it was 0.063-2; in series [3] (pH 7.3), 4-128; in the series with E. coli (pH 7.3), “≦0.008-128”; in series [4] (pH 7.3) it was 0.125-1.
Consider `N#Cc1c(N2C[C@@H]3NCCO[C@H]3C2)c(F)cc2c(=O)c(C(=O)O)cn(C3CC3)c12` [finafloxacin free base form A], for which the “stability of polymorph at high temperatures” value in series [6] is given as “most stable at high temperatures”.

Broadly, the MIC50 is an inhibitory concentration at the 50% level, which refers to growth in some studies and to a panel of isolates in others.

The record behind these values is US9504691B2, “Finafloxacin suspension compositions” (ALCON RESEARCH, LTD., priority 2012, dated 2016).
